Experimental data reported in patent publication US12064420B2, “Tie-2 activators targeting the Schlemm's canal” (EyePoint Pharmaceuticals, Inc., priority 2019, dated 2024).

Columns and labels:
[1] = tested on: ocular normotensive human patients with diabetic eye disease; experiment: Phase 2 trial: IOP after subcutaneous Compound 1 alone or with intravitreal ranibizumab, diabetic macular edema; format: in vivo; settings: for Week 4 subject-level IOP change from BL, mean (SD) / Week 4 subject-level IOP, mean (SD) / Week 8 subject-level IOP change from BL, mean (SD) / Week 8 subject-level IOP, mean (SD) / Week 12 subject-level IOP change from BL, mean (SD) / Week 12 subject-level IOP, mean (SD): average of study eye and fellow eye
Procedure: IOP in patients were measured using a double-masked, parallel-group designed to assess the effects of subcutaneous (SC) Compound 1 (sodium salt) alone, or as an adjunct to intravitreal ranibizumab trial. 144 human subjects with diabetic retinopathy complicated by center-involved diabetic macular edema (DME) were randomized to 3 months of one of 3 treatments: 1) Compound 1 (15 mg) SC twice daily (BID) plus sham monthly intravitreal injection (IVT); 2) Compound 1 SC BID plus ranibizumab (0.3 mg) monthly IVT; and 3) Placebo SC BID+ranibizumab IVT. At baseline, mean age was 61.3±1.3 years; 59% of subjects were male; 82.6% had Type 2 diabetes; mean HBA1c was 7.5%±1.3%; mean best corrected visual acuity was 60.2 ETDRS letters (Snellen 20/63); and mean IOP was 15.7 mmHg±3.4. Ophthalmic safety assessments were performed at baseline and monthly during the 3-month treatment period including a single IOP measurement by applanation tonometry in both the study eye and the fellow eye at each time point. By protocol, all patients had baseline IOP<24 mmHg (ocular normotensive).
In the pre-specified safety analysis, change from baseline IOP was analyzed using a t-test (null hypothesis 0 change from baseline). The level of significance was set at 0.05. A post hoc analysis of the subject level IOP measure was the change from baseline in the average over both eyes within a subject for each timepoint. Statistical testing of each timepoint was completed using ANCOVA with baseline IOP (averaged over both eyes within a subject) as covariate. Additionally, statistical testing averaging across all timepoints was completed using a mixed-model repeated measures ANCOVA. The level of significance was set at 0.05.

C57 mice = experiment: IOP in mice after once daily topical dosing (rebound tonometry); format: in vivo, mouse
Procedure: Mice were handled in accordance with acceptable animal care and use guidelines. C57BL/6 (C57) mice were bred/housed in clear cages and kept in housing rooms at 21° C. with a 12 h: 12 h light-dark cycle. Mice were examined at ages between 4 to 6 months old.
Each animal was randomly assigned to receive one masked treatment (eye drops, 4% Compound 1 or vehicle) in one eye and the other masked treatment in the contralateral eye once daily for three consecutive days. IOPs of both eyes were measured prior to eye drop administration using rebound tonometry between 11 am and 1 pm daily. After collecting IOP measurements on the third day, a final drop of Compound 1 or placebo was administered and TOP was measured again 2 and 4 hours later. For TOP measurements, mice were anesthetized with ketamine (60 mg/kg) and xylazine (6 mg/kg). TOP was immediately measured as the mice stopped moving, while drifting into light sleep, but before becoming anesthetized. Each TOP measurement that was recorded was a result of an average of six independent measurements per time point, giving a total of […] measurements from the same eye.

[2] = week 12, listed as All Compound 1
[3] = week 12, listed as Compound 1 + Sham

COC(=O)N[C@@H](Cc1ccccc1)C(=O)N[C@@H](Cc1ccc(NS(=O)(=O)O)cc1)c1csc(-c2cccs2)n1 [Compound 1, 4-{(S)-2-[(S)-2-(Methoxycarbonylamino)-3-phenylpropanamido]-2-[2-(thiophen-2-yl)thiazol-4-yl]ethyl}phenylsulfamic acid]
Week 4 subject-level IOP change from BL, mean (SD) ([1]; listed as All Compound 1): −1.2 (2.92) mmHg | Week 4 subject-level IOP, mean (SD) ([1]; listed as All Compound 1): 14.5 (2.92) mmHg | Week 4 subject-level IOP change from BL, mean (SD) ([1]; listed as Compound 1 + Sham): −0.8 (3.14) mmHg | Week 4 subject-level IOP, mean (SD) ([1]; listed as Compound 1 + Sham): 14.7 (2.88) mmHg | Week 8 subject-level IOP change from BL, mean (SD) ([1]; listed as All Compound 1): −1.3 (3.17) mmHg | Week 8 subject-level IOP, mean (SD) ([1]; listed as All Compound 1): 14.5 (3.31) mmHg | Week 8 subject-level IOP change from BL, mean (SD) ([1]; listed as Compound 1 + Sham): −1.1 (3.25) mmHg | Week 8 subject-level IOP, mean (SD) ([1]; listed as Compound 1 + Sham): 14.4 (3.26) mmHg | Week 12 subject-level IOP change from BL, mean (SD) [1, 2]: −1.3 (2.93) mmHg | Week 12 subject-level IOP, mean (SD) [1, 2]: 14.5 (3.31) mmHg | Week 12 subject-level IOP change from BL, mean (SD) [1, 3]: −1.4 (2.98) mmHg | Week 12 subject-level IOP, mean (SD) [1, 3]: 14.1 (3.36) mmHg | Week 4 IOP change from BL, mean (SD) ([1]; fellow eye (FE)): −0.8 (3.36) mmHg | Week 8 IOP change from BL, mean (SD) ([1]; fellow eye (FE)): −1.1 (3.58) mmHg | Week 12 IOP change from BL, mean (SD) ([1]; fellow eye (FE), week 12): −1.4 (3.29) mmHg | Week 12 IOP, mean (SD) ([1]; fellow eye (FE), week 12): 14.0 (3.41) mmHg | Week 4 IOP change from BL, mean (SD) ([1]; study eye (SE)): −0.8 (3.34) mmHg | Week 8 IOP change from BL, mean (SD) ([1]; study eye (SE)): −1.1 (3.37) mmHg | Week 12 IOP change from BL, mean (SD) ([1]; study eye (SE), week 12): −1.4 (3.16) mmHg | decrease of IOP (C57 mice; 4% topical QD, Day 3, 2 and 4 hours after treatment): ~30% | change in IOP relative to Day 0, mean±standard error (C57 mice; 4% topical QD, just prior to dosing on Day 1): −0.74±0.43 mmHg | change in IOP relative to Day 0, mean±standard error (C57 mice; 4% topical QD, just prior to dosing on Day 2): −1.00±0.27 mmHg | change in IOP relative to Day 0, mean±standard error (C57 mice; 4% topical QD, prior to dosing on Day 3): −1.6±0.3 mmHg | change in IOP compared to both Day 0 pretreatment and placebo treatment, mean±SE (C57 mice; Day 3, 2 hours after treatment): −3.85±1.1 mmHg | change in IOP compared to only placebo-treated eyes, mean±SE (C57 mice; Day 3, 2 hours after treatment): −5.66±1.0 mmHg | change in IOP compared to both Day 0 pretreatment and placebo treatment, mean±SE (C57 mice; Day 3, 4 hours after treatment): −3.1±0.6 mmHg | change in IOP compared to only placebo-treated eyes, mean±SE (C57 mice; Day 3, 4 hours after treatment): −4.87±0.75 mmHg
